From patent publication US20230149338A1, “DIAGNOSIS AND TREATMENT OF ADDICTION” (The Regents of the University of California, priority 2020, published 2023)
Entries after “also recorded” stand apart in the source; their conditions may differ.

Key:
Type in all cases: in vivo, rat
Bacteroidetes = assay: 16S RNA sequencing of feces: Bacteroidetes abundance
Procedure: (§1) At each time point, approximately two fecal pellets were harvested and put directly into a cryovial, which was placed on powered dry ice. The pellets were then stored at −80° C. until processing for sequencing. At the time of DNA extraction, feces were thawed and extracted with the Qiagen DNeasy powersoil kit. The samples are then amplified by PCR in triplicate and then pooled. The 16S V4 gene was amplified using universal primers ([…]). Each sample was normalized to 240 ng per sample and purified. After purification, the A260/A280 ratio of the final pool was recorded to ensure purity, with a tolerance range of 1.8-2.0. The barcoded amplicons from all of the samples were normalized, pooled to construct the sequencing library, and sequenced using an Illumina MiSeq sequencer. The sequencing primers were the following: […]
(§2) After sequencing, the raw files were prepared, filtered for quality, and demultiplexed. Operational taxonomic units (OTUs) were selected using open-reference OUT picking based on 97% sequence similarity to the Greengenes database. Taxonomy assignment and rarefaction were performed using Qiita with 15,000 reads per sample (Gonzalez et al. 2018). The alpha diversity was measured using both the Shannon diversity index and Chao1 index and compared between baseline and treatment conditions. […]

Fos+ neurons = assay: Fos immunohistochemistry, quantification of Fos+ neuronal ensembles
Procedure: Two hours later, the rats were injected with either saline (OXY and OXY+ABX groups) or 1 mg/kg naloxone (WD, WD+ABX, and SAL groups) to maintain intoxication or precipitate withdrawal, respectively. Brains were collected 90 min after the injection of naloxone or saline to produce both intoxicated and withdrawal groups. The rats were deeply anesthetized and perfused with 100 mL of phosphate-buffered saline (PBS) followed by 100 mL of 4% paraformaldehyde (PFA). Brains were postfixed in 4% PFA overnight and transferred to 30% sucrose in a PBS/0.1% azide solution at 4° C. for 2 days. Brains were frozen in powdered dry ice for 15-30 s and then sectioned coronally at 40 μm thickness throughout the brain using a cryostat. Representative sections were quantified from the following regions at the following coordinates according to the (Paxinos 2007) rat brain atlas: PVT (bregma −3.36), LHb (bregma −3.36), BLA (bregma −3.12), CeA (bregma −3.12), PAG (bregma −5.76), anterior agranular insula bregma (+3.00), BNST (bregma 0.00), and LC (bregma −9.16).
The sections were washed in PBS for 10 min three times and then incubated in 1% H2O2/PBS for 20 min to quench endogenous peroxidase activity. The sections were then rinsed for 10 min three times in PBS and incubated in blocking solution (PBS+0.3% TritonX-100, 1 mg/mL bovine serum albumin, and 5% normal donkey serum) for 1 h. The sections were then incubated for 24 h at room temperature with rabbit monoclonal anti-Fos antibody (Cell Signaling Technologies, catalog no. 2250, RRID: AB_2247211) diluted 1:1000 in PBS/0.5% Tween-20 and 5% normal donkey serum. Following incubation with the primary antibody, the sections were washed for 10 min three times in PBS and incubated for 2 h in undiluted rabbit ImmPress horseradish peroxidase reagent (Vector Laboratories, catalog no. MP-7451, RRID: 2631198).
The sections were then washed in PBS for 10 min three times and then developed for 6 min in Vector peroxidase 3,3′-diaminobenzidine (DAB) substrate (Vector Laboratories, catalog no. SK-4100, RRID: 2336382) enhanced with nickel chloride. Following rinses in PBS for 10 min three times, the sections were mounted on Fisher Super Frost Plus slides, air dried, and coverslipped with PVA-DABCO (Sigma Aldrich, catalog no. 10981). Following coverslipping, images were acquired using a Keyence BZX700 fluorescent microscope and analyzed using Fiji software.
Quantitative analysis to obtain unbiased estimates of the total number of Fos+positive cell bodies was performed using Fiji software with the Analyze Particles module (Schindelin et al. 2012). Slides were imaged on a Keyence BZX700 slide scanner and stitched at 2[…] magnification. Three sections were bilaterally analyzed for each rat and then averaged per animal (counted as n=1). A total of 4-6 animals of each sex per group were analyzed. Cell numbers were normalized to the area of the region of interest.

microbiome = assay: 16S RNA sequencing of feces: alpha diversity and phyla; details: post-treatment
Procedure: as §1, §2

Sprague-Dawley rats [1] = assay: Withdrawal score after naloxone-precipitated withdrawal
Procedure: (§3) The rats were subjected to microbiome depletion using a cocktail of non-absorbable antibiotics in their drinking water. Control rats were given regular drinking water. […] Withdrawal was precipitated at the end of the injection paradigm with a subcutaneous injection of naloxone (1 mg/kg) in the saline (SAL) group, withdrawal (WD) group, and antibiotic-treated withdrawal (WD+ABX) group. For the intoxication state, the rats were given a saline injection at the same time as the naloxone group. The OXY group included animals that were not treated with antibiotics in the intoxicated state, and the OXY+ABX group included animals that were treated with antibiotics in the intoxicated state. […] The rats were sacrificed and perfused 90 min after the naloxone injection in the WD, WD+ABX, and SAL groups and after 90 min following the saline injection (matched with the naloxone injection time point) in the OXY and OXY+ABX groups. Brains were then cryopreserved and stained for Fos expression.
To precipitate withdrawal, the rats were subcutaneously injected with naloxone and then placed in a Plexiglas observation chamber.
Withdrawal symptoms were categorized using a scale that was modified from (Gellert et al. 1978) and (Cicero et al. 2002). Graded signs of withdrawal were scored as the following: wet dog shakes (1 or 2 shakes=2; 3 or 4 shakes=3; […] shakes=4) and escape attempts (2-4 attempts=1; 5-9 attempts=2; ≥10 attempts=3). The following behaviors were measured per instance: abnormal posture/writhing, teeth chattering, ptosis (drooping eyelids), diarrhea, profuse salivation, urination, swallowing movements, and chromodacyorrhea (red tears). The total withdrawal score was calculated as the sum of all of the individual withdrawal scores. Immediately after withdrawal testing, all of the rats were returned to standard cages and given unrestricted access to food and water.

Firmicutes = assay: 16S RNA sequencing of feces: Firmicutes abundance
Procedure: as §1, §2

Sprague-Dawley rats [2] = assay: Mechanical nociceptive von Frey test, passive oxycodone injection model
Procedure: as §3
Mechanical nociception, reflected by hindpaw withdrawal thresholds, was determined by an observer who was blind to the experimental groups using von Frey filaments that ranged from 3.63 to 281.838 g as previously reported (Dixon 1965, Kononoff et al. 2018). A test session began after 10 min of habituation to the testing environment immediately following the subcutaneous injection of naloxone (WD, WD+ABX, and SAL groups) or saline (OXY and OXY+ABX groups). […] The 50% paw withdrawal threshold was determined by the formula Xf+kδ, where Xf is the last von Frey filament applied, k is the Dixon value that corresponded to the response pattern, and […] is the mean difference between stimuli. Once the threshold was determined for the left hindpaw, the same testing procedure was repeated for the right hindpaw after 5 min. Paw withdrawal thresholds were recorded at baseline, during intoxication, and during precipitated withdrawal.

[3] = oxycodone + naloxone withdrawal vs SAL and OXY groups
[4] = oxycodone + naloxone withdrawal vs SAL group
[5] = withdrawal compared with the control group

COc1ccc2c3c1O[C@H]1C(=O)CC[C@@]4(O)[C@@H](C2)N(C)CC[C@]314 [oxycodone, Oxycodone]
change in Bacteroidetes after treatment (Bacteroidetes; OXY group or OXY+ABX group compared with the matched SAL group): −19.01%
Bacteroidetes at the phylum level, group comparison (Bacteroidetes; post-treatment, OXY+ABX vs water and OXY groups, OXY vs SAL): No difference in Bacteroidetes
number of Fos+ neurons, BLA, WD group (Fos+ neurons; oxycodone + naloxone withdrawal vs OXY and SAL groups): significant decrease in Fos+ neurons compared with the OXY group but no difference from the SAL group
number of Fos+ neurons, BNST, WD group (Fos+ neurons; [3]): significant increase in the number of Fos+ neurons; also recorded: significant decrease in the number of Fos+neurons compared with the WD and WD+ABX groups
number of Fos+ neurons, LHb, WD group (Fos+ neurons; [3]): significant increase in the number of Fos+neurons
number of Fos+ neurons, PAG, WD group (Fos+ neurons; [3]): significant increase in Fos+ neurons
number of Fos+ neurons, PVT, WD group (Fos+ neurons; [3]): significant increase in Fos+ positive neurons; also recorded: significant decrease in the number of Fos+ neurons in the SAL group compared with the WD and WD+ABX groups
number of Fos+ neurons, anterior insula, WD group (Fos+ neurons; [3]): significant increase in the number of Fos+ neurons
number of Fos+ neurons, CeA, WD group (Fos+ neurons; [4]): significant difference between the SAL and WD groups
number of Fos+ neurons, LC, WD group (Fos+ neurons; [4]): significant difference between the SAL group and the WD and WD+ABX groups
increase in the number of Fos+ neurons, LC (Fos+ neurons; [5]): 475%
increase in the number of Fos+ neurons, LHb (Fos+ neurons; [5]): 712%
increase in the number of Fos+ neurons, PVT (Fos+ neurons; [5]): 289%
increase in the number of Fos+ neurons, lateral BNST (Fos+ neurons; withdrawal, antibiotic-treated animals compared with the control group): 1272%
alpha diversity, Chao1 test, OXY vs SAL group (microbiome): no difference in alpha diversity
increase in withdrawal signs (Sprague-Dawley rats [1]; WD and WD+ABX groups): 1420%
withdrawal score, intoxicated vs saline animals (Sprague-Dawley rats [1]; oxycodone intoxication): No significant difference in withdrawal scores
total withdrawal score during withdrawal (Sprague-Dawley rats [1]; oxycodone-dependent rats, naloxone-precipitated withdrawal, vs saline and intoxicated animals): significantly higher withdrawal scores
change in Firmicutes after treatment (Firmicutes; OXY group or OXY+ABX group compared with the matched saline group): 38.5%
Firmicutes at the phylum level, group comparison (Firmicutes; post-treatment, OXY+ABX vs SAL and OXY groups, OXY vs SAL): No difference in Firmicutes
decrease in pain thresholds (Sprague-Dawley rats [2]; WD and WD+ABX groups, naloxone-precipitated withdrawal): 64%
von Frey pain threshold during oxycodone intoxication (Sprague-Dawley rats [2]; oxycodone 2 mg/kg s.c. every 12 h, intoxicated animals vs saline, withdrawal groups and baseline): significantly higher von Frey scores; also recorded: higher pain thresholds
von Frey pain threshold during withdrawal (Sprague-Dawley rats [2]; oxycodone-dependent rats, naloxone 1 mg/kg precipitated withdrawal, vs saline, intoxication, baseline): significantly lower von Frey scores; also recorded: lower pain thresholds
